What follows are compounds tested against Ba/F3-TEL-FGFR2 (Homo sapiens, UniProt P21802+P41212) (assay: Cell viability (proliferation inhibition) of Ba/F3 cells, CellTiter Glo). Conditions: read-out: Ba/F3 cell FGFR2 (IC50 nM), 72 h.
Chain of Ba/F3-TEL-FGFR2 (P21802 481-770 limits assumed, one chain of several): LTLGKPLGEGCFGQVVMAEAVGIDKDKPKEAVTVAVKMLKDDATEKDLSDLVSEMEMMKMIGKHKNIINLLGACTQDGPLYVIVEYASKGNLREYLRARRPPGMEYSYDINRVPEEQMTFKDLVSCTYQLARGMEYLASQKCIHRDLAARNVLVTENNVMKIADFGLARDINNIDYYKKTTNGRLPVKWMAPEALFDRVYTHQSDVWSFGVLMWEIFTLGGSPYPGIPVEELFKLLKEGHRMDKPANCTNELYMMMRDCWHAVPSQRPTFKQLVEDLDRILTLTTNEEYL
Compound `C=C(COC)C(=O)Nc1ccc(-c2c(-c3ccc(N=S4(=O)CCCC4)c(F)c3)c3c(N)ncnc3n2C)cc1` [Compound 18, N-(4-(4-amino-5-(3-fluoro-4-((1-oxotetrahydro-1 λ^6-thiophene-1-ylidene)amino)phenyl) -7-methyl-7H-pyrrolo [2,3-d]pyrimidin-6-yl)phenyl) -2-(methoxymethyl) acrylamide] has an IC50 of 21.5 nM. `CC#CC1=Nc2ccc(-c3c(-c4ccc(N=S(C)(C)=O)c(F)c4)c4c(N)ncnc4n3C)cc2C(C)(C)O1` [Compound 19] was tested, and the IC50 was 2980 nM. In the case of `CC#CC(=O)Nc1ccc(-c2c(-c3ccc(N=S(C)(C)=O)c(F)c3)c3c(N)ncnc3n2C)cc1C(C)(C)O` [Compound 20], the IC50 is reported as 86.7 nM. `C=C(C)C(=O)Nc1ccc(-c2c(-c3ccc(N=S4(=O)CCCC4)c(F)c3)c3c(N)ncnc3n2C)c(C#N)c1` [Compound 25, N-(4-(4-amino-5-(3-fluoro-4-((1-oxotetrahydro-1 λ^6-thiophene-1-ylidene)amino)phenyl) -7-methyl-7H-pyrrolo [2,3-d]pyrimidin-6-yl) -3-cyanophenyl) methacrylamide] was tested, and the IC50 was 38.7 nM. For `C=C(C)C(=O)Nc1ccc(-c2c(-c3cc(F)c(N=S4(=O)CCCC4)c(F)c3)c3c(N)ncnc3n2C)cc1` [Compound 27, N-(4-(4-amino-5-(3,5-difluoro-4-((1-oxotetrahydro-1 λ^6-thiophene-1-ylidene)amino)phenyl) -7-methyl-7H-pyrrolo [2,3-d]pyrimidin-6-yl)phenyl) methacrylamide], the IC50 was 26 nM. `C=C(C)C(=O)Nc1ccc(-c2c(-c3ccc(N=S(=O)(N(C)C)C(F)(F)F)cc3)c3c(N)ncnc3n2C)cc1` (stereo not drawn) [Compound 28] was tested, and the IC50 was 0.9 nM. `C=C(C)C(=O)Nc1ccc(-c2c(-c3ccc(N=S4(=O)CCN(C)CC4)c(F)c3)c3c(N)ncnc3n2C)cc1` [Compound 30, N-(4-(4-amino-5-(3-fluoro-4-((4-methyl-1-oxo-1 λ^6-thiomorpholin-1-ylidene)amino)phenyl) -7-methyl-7H-pyrrolo [2,3-d]pyrimidin-6-yl)phenyl) methacrylamide] showed an IC50 of 1440 nM. In the case of `C=C(C)C(=O)Nc1ccc(-c2c(-c3ccc(N=S4(=O)CCCCC4)c(C)c3)c3c(N)ncnc3n2C)cc1` [Compound 34, N-(4-(4-amino-7-methyl-5-(3-methyl-4-((1-oxotetrahydro-2H-1λ^6-thiopyran-1-ylidene)amino)phenyl) -7H-pyrrolo [2,3-d]pyrimidin-6-yl)phenyl) methacrylamide], the IC50 is reported as 17.9 nM. Compound `C=C(C)C(=O)Nc1ccc(-c2c(-c3ncc(N=S4(=O)CCCCC4)cc3F)c3c(N)ncnc3n2C)cc1` [Compound 36, N-(4-(4-amino-5-(3-fluoro-5-((1-oxotetrahydro-2H-1 λ^6-thiopyran-1-ylidene)amino)pyridin-2-yl) -7-methyl-7H-pyrrole [2,3-d]pyrimidin-6-yl)phenyl) methacrylamide] has an IC50 of 53.5 nM. In the case of `C=C(C)C(=O)Nc1ccc(-c2c(-c3ccc(N=S4(=O)CCCCC4)c(F)c3)c3c(N)ncnc3n2C)cc1F` [Compound 37, N-(4-(4-amino-5-(3-fluoro-4-((1-oxotetrahydro-2H-1 λ^6-thiopyran-1-ylidene)amino)phenyl) -7-methyl-7H-pyrrolo [2,3-d]pyrimidin-6-yl) -2-fluorophenyl) methacrylamide], the IC50 is reported as 32 nM. With `C=C(C)C(=O)Nc1cc(-c2c(-c3ccc(N=S4(=O)CCCCC4)c(F)c3)c3c(N)ncnc3n2C)ccc1F` [Compound 38, N-(5-(4-amino-5-(3-fluoro-4-((1-oxotetrahydro-2H-1 λ^6-thiopyran-1-ylidene)amino)phenyl) -7-methyl-7H-pyrrolo [2,3-d]pyrimidin-6-yl) -2-fluorophenyl) methacrylamide] the IC50 was 247 nM. Work on `C=C(C)C(=O)Nc1ccc(F)c(-c2c(-c3ccc(N=S(=O)(N(C)C)C(F)(F)F)cc3)c3c(N)ncnc3n2C)c1` (stereo not drawn) [Compound 39] yielded an IC50 of 10.2 nM.

From patent publication EP4553077A1 (Kinoteck Therapeutics Co., Ltd, priority 2022, dated 2024)
